According to patent US12259352B2, “Membrane enhanced sensors” (University Of Cincinnati, priority 2018, dated 2025):

Legend:
[1] = cited from earlier work
[2] = Cortisol transport through hydrophobic barrier (track-etch membrane with castor oil) to electrochemical aptamer sensor, FIG. 6B; details: sensor solution hundreds of micrometers thick; track-etch membrane of 10% porosity filled with castor oil

concentration lag time (time for sensor solution to reach 90% of sample solution concentration) [2] | Compound | Solubility in Water (in words) [1]
– | CCCCC/C=C\C/C=C\C/C=C\C/C=C\CCCC(=O)O [Arachidonic Acid] | Negligible
– | CCCCCC/C=C\CCCCCCCC(=O)O [Palmitoleic Acid] | Low
~30 min | C[C@]12CCC(=O)C=C1CC[C@@H]1[C@@H]2[C@@H](O)C[C@@]2(C)[C@H]1CC[C@]2(O)C(=O)CO [cortisol] | –
